Test results reported in US4529587A, “Method of reducing sebum on the hair and skin” (Lever Brothers Company, priority 1982, dated 1985).
“And” between values parts separate entries of the source, which are not always exact repeats. Equal values may be shown once.

Columns and labels:
acetyl-SCoA-carboxylase = acetyl-SCoA-carboxylase activity in cultured human dermal fibroblasts (fixation of ^14 C-sodium bicarbonate into protein); format: cell-based
Description: In preliminary experiments the ability of biotin sulphone to reduce the activity of acetyl-SCoa-carboxylase in an in vitro assay was assessed using cultured human dermal fibroblasts as described in Ghneim et al (1981) Biochem. Soc. Trans. 9, 405-6 and references therein. Human dermal fibroblasts were maintained in culture for 3 days with 1 μM biotin sulphone in the presence of a nutrient medium containing 10% foetal calf serum. The level of naturally occurring biotin was about 10 nM. Enzyme activity was assayed in the cell pellet by the fixation of ^14 C-sodium bicarbonate into protein in the presence of acety-CoA under appropriate conditions. Control experiments were done in the absence of biotin sulphone and enzyme activities were calculated with respect to protein.

[1] = system: ^14 C-acetate uptake into dermal lipids; test: in vivo topical treatment of rats, ^14 C-acetate uptake into dermal lipids; parameters: species or system rat
Description: (§1) Ten, 3 week male weanling rats, clipped on left and right flanks, were divided into two groups of five animals. One group was untreated on the left flank while the right flank received the test solution (1 mg/ml biotin sulphone in 70% ethanol:30% water) twice a day (once per day at weekends) for six weeks. The second group received the ethanol/water carrier on the left flank and the test solution on the right. At the end of the treatment the rats were killed, skin removed and divided approximately into epidermis and dermis using a 0.2 mm keratatome cut. Samples of dermis containing most of the sebaceous tissue from either untreated (UN), vehicle (V) or test (T) treated skin were incubated in a nutrient medium (basal eagles medium +10% foetal calf seru, 20 mM hepes pH 7.4, antibiotics, 100 μM sodium acetate containing 1 μCi/ml sodium (1-^14 C) acetate for 19 hours at 37° C. The ^14 C-acetate is metabolically incorporated into lipids and gives a "snap shot" of the lipid synthesis profile over the 19 hour time period. At the end of the incubation samples were washed in ice cold medium without ^14 C-acetate, quenched in ice cold 5% trichloroacetic acid (TCA), homogenised and centrifuged to separate insoluble residue from TCA soluble material ("TCA" fraction). The TCA fraction contains nucleo dtides, small metabolites especially succinate, amino acids, small peptides and free ^14 C-acetate. Lipids were extracted in chloroform:methanol and subject to Folch washing essentially as described by Prottey el al., Brit. J. Dermatol. (1972) 87, 586-607 generating the following fractions : "lipids", "aqueous methanol" containing only a small proportion of skin lipids with a very low ^14 C count and an extracted "solid residue". The total ^14 C count in all these fractions was determined.
The following ratio provides a measure of lipid synthesis per unit volume of skin, that is the total ^14 C-acetate uptake into lipids (i.e. amount of lipid synthesis) divided by the ^14 C-acetate uptake into the remaining tissue fractions (i.e. a measure of sample size). (Remaining tissue="TCA" fraction+"solid residue").

[2] = system: FFA and "Triglyceride" lipid synthesis; test: in vivo topical treatment of rats, ^14 C-acetate incorporation into FFA and "triglyceride" lipid (thin layer chromatography fractions); parameters: species or system rat
Description: as §1
The radioactive lipids were fractionated into free fatty acids (FFA) monoglycerides (MG), diglycerides (trace only) and triglyerides (TG) using a standard, neutral solvent, thin layer chromatography system.
However ^14 C-acetate is also incorporated into the cholesterol synthetic pathway which should be largely unaffected by the biotin sulphone treatment. This will cause a "dilution" of the reduction seen above. Accordingly, the lipids whose synthesis is dependent on acetyl-SCoA-carboxylase have been isolated. These are free fatty acids (FFA), monoglyceride (MG), diglyeride (trace) triglyceride (TG). It is predicted that a greater reduction in the incorporation of ^14 C-acetate into "triglyceride" lipid should now be observed. As fatty acids are the primary product made by the acetyl-SCoA-carboxylase pathway in the sebaceous gland, results for this lipid class have been included separately, as well as for total "triglyceride" lipid; values of six of the rats are given in Table 3 below: […]

[3] = biotin sulphone treatment, rats
[4] = individual rats, 1 = 41,151 DPM ^14 C-acetate incorporated into lipid, corrected for sample size, topical 1 mg/ml, six weeks

Compound: O=C(O)CCCC[C@H]1[C@H]2NC(=O)N[C@H]2CS1(=O)=O [biotin sulphone]
- nCi ^14 C-bicarbonate fixed per mg protein (acetyl-SCoA-carboxylase; 1 μM biotin sulphone, 3 days, 10% foetal calf serum, control 4.46): 3.26 nCi per mg protein
- Acetyl-SCoA-carboxylase activity (%) (acetyl-SCoA-carboxylase; 1 μM biotin sulphone, 3 days, control = 100): 73%
- reduction in acetyl-SCoA-carboxylase activity (acetyl-SCoA-carboxylase; culture in the presence of 1 μM biotin sulphone, vs control, 4320 min): 27%
- Av. Test ratio: ^14 C-acetate uptake into lipids divided by uptake into remaining tissue ([1]; average of ten rats, control (UN or V) Av. 0.59): 0.49
- change of Av. Test ratio vs control ([1]; average, Test vs UN or V): -18%
- Test ratio: ^14 C-acetate uptake into lipids divided by uptake into remaining tissue (TCA fraction + solid residue) ([1]; individual rats A-J, 1 mg/ml in 70% ethanol:30% water, topical, twice a day, six weeks, dermis incubated 19 hours at 37° C.): 0.43 and 0.23 and 0.59 and 0.44 and 0.52 and 0.53 and 0.58 and 0.39 and 0.73
- overall reduction in ^14 C-acetate uptake into dermal lipids ([1]; topical application, ten rats): 18%
- FFA synthesis, Test, Av. ([2]; average of six rats, 1 = 41,151 DPM ^14 C-acetate, control Av. 1.50): 0.91
- "Triglyceride" lipid synthesis (sum of FFA + MG + TG), Test, Av. ([2]; average of six rats, 1 = 41,151 DPM ^14 C-acetate, control Av. 18.24): 12.94
- change of "Triglyceride" lipid synthesis vs control ([2]; average, Test vs V + UN): -29%
- change of FFA synthesis vs control ([2]; average, Test vs V + UN): -39%
- reduction of "Triglyceride" (FFA+MG+TG) synthesis [2, 3]: 29%
- reduction of denovo FFA synthesis [2, 3]: 39%
- "Triglyceride" lipid synthesis (sum of FFA + MG + TG), Test [2, 4]: 13.93 and 8.58 and 15.17 and 15.38 and 14.74 and 9.85
- FFA synthesis, Test [2, 4]: 0.78 and 0.41 and 0.60 and 1.67 and 1.22
